Reference: ChEMBL document CHEMBL4513139, “CO-ADD screening of University of Strathclyde (UK) compounds”
≈ marks a conversion by molar mass, not a printed value. Where “and” joins values, the source holds several entries; their conditions need not be identical. Identical values can stand only once.

Key:
HEK293 = experiment: cells; format: functional, Homo sapiens, ATCC CRL1573; settings: ASSAY_TEST Inhibition of Cell Viability, detection method Resazurin, Fluorescence (ex560/em590), MEDIA DMEM with 10% FBS, plate type 384well, TC, CORNING #3712, time 18 hr
Staphylococcus aureus [1] = experiment: microbe, parasite or virus in culture; settings: ATCC 43300, 18 h, ASSAY_TEST Inhibition of Bacterial Growth, detection method Absorption (OD600), MEDIA CAMHB, plate type 384well, NBS, CORNING #3640
Description: (§1) Antibacterial activity against Staphylococcus aureus MRSA ATCC 43300 (CO-ADD:GP_020); MIC in CAMBH media, using NBS plates, by OD(600)

Escherichia coli = experiment: microbe, parasite or virus in culture; settings: ATCC 25922, 18 h, ASSAY_TEST Inhibition of Bacterial Growth, detection method Absorption (OD600), MEDIA CAMHB, plate type 384well, NBS, CORNING #3640
Description: Antibacterial activity against Escherichia coli ATCC 25922 (CO-ADD:GN_001); MIC in CAMBH media using NBS plates, by OD(600)

Klebsiella pneumoniae = experiment: microbe, parasite or virus in culture; settings: ATCC 700603, 18 h, ASSAY_TEST Inhibition of Bacterial Growth, detection method Absorption (OD600), MEDIA CAMHB, plate type 384well, NBS, CORNING #3640
Description: Antibacterial activity against Klebsiella pneumoniae MDR ATCC 70063 (CO-ADD:GN_003); MIC in CAMBH media using NBS plates, by OD(600)

Pseudomonas aeruginosa = experiment: microbe, parasite or virus in culture; settings: ATCC 27853, 18 h, ASSAY_TEST Inhibition of Bacterial Growth, detection method Absorption (OD600), MEDIA CAMHB, plate type 384well, NBS, CORNING #3640
Description: Antibacterial activity against Pseudomonas aeruginosa ATCC 27853 (CO-ADD:GN_042); MIC in CAMBH media using NBS plates, by OD(600)

Acinetobacter baumannii = experiment: microbe, parasite or virus in culture; settings: ATCC 19606, 18 h, ASSAY_TEST Inhibition of Bacterial Growth, detection method Absorption (OD600), MEDIA CAMHB, plate type 384well, NBS, CORNING #3640
Description: Antibacterial activity against Acinetobacter baumannii ATCC 19606 (CO-ADD:GN_034); MIC in CAMBH media using NBS plates, by OD600

Candida albicans [2] = experiment: microbe, parasite or virus in culture; settings: ATCC 90028, ASSAY_TEST Inhibition of Fungal Growth, detection method Absorption (OD530), plate type 384well, NBS, CORNING #3640
Description: (§2) Antifungal activity against Candida albicans ATCC 90028 (CO-ADD:FG_001); MIC in YNB media using NBS plates, by OD630

Staphylococcus aureus [3] = settings: ASSAY_TEST Inhibition of Bacterial Growth, detection method Absorption (OD600), MEDIA CAMHB, plate type 384well, NBS, CORNING #3640, time 18 hr
Description: as §1

Candida albicans [4] = settings: ASSAY_TEST Inhibition of Fungal Growth; detection method Absorption (OD530); plate type 384well; NBS; CORNING #3640
Description: as §2

[5] = Homo sapiens, ATCC CRL1573, HEK293, read-out: CC50

Description for Cryptococcus neoformans: Antifungal activity against Cryptococcus neoformans H99 ATCC 208821 (CO-ADD:FG_002); MIC in YNB media using NBS plates, by Resazurin OD(600-570)

SMILES	CC50 (HEK293; [5]) [µg/mL]	MIC (Cryptococcus neoformans) [µg/mL]	MIC (Staphylococcus aureus [1]) [µg/mL]	MIC (Escherichia coli) [µg/mL]	MIC (Klebsiella pneumoniae) [µg/mL]	MIC (Pseudomonas aeruginosa) [µg/mL]	MIC (Acinetobacter baumannii) [µg/mL]	MIC (Candida albicans [2]) [µg/mL]	CC50 (HEK293)	MIC (Staphylococcus aureus [3]) [µg/mL]	MIC (Candida albicans [4])
CN(C)CCCn1cnc(NC(=O)c2cc(NC(=O)c3cc(NC(=O)c4cc5ccccc5cn4)cn3C)cn2C)c1.O=C(O)C(F)(F)F	7.3	16	> 32	> 32	> 32	> 32	> 32	> 32			
COc1cccc(C(=N)Nc2cc(C(=O)Nc3cc(C(=O)Nc4cc(C(=O)NCCCN(C)C)n(CCC(C)C)c4)n(C)c3)n(C)c2)c1	> 32	> 32	> 32	> 32	> 32	> 32	> 32	> 32			
COCCOC1CCN(CCNC(=O)c2cc(NC(=O)c3cc(NC(=O)c4ccc(/C=C/c5ccc6nonc6c5)cc4)cn3C)cn2C)CC1.O=S(=O)(O)O	3.84	> 32	> 32	> 32	> 32	> 32	> 32	> 32			
Cn1cc(NC(=O)c2cc(NC(=O)c3ccc(/C=C/c4ccc(C(F)(F)F)cc4)cc3)cn2C)cc1C(=O)NCCN1CCOCC1.O=C(O)C(F)(F)F	> 32	> 32	> 32	> 32	> 32	> 32	> 32	> 32			
CC(C)CCc1sc(NC(=O)c2cc(NC(=O)c3cc(NC(=N)c4ccccc4)cn3C)cn2C)nc1C(=O)NCCCN(C)C.O=C(O)C(F)(F)F.O=C(O)C(F)(F)F	> 32	4	> 32	> 32	> 32	> 32	> 32	> 32			
COCCOC1CCN(CCNC(=O)c2cc(NC(=O)c3cc(NC(=O)c4ccc(/C=C/c5cnc6ccccc6c5)cc4)cn3C)cn2C)CC1	1.96 (≈ 2.78 µM)	> 32	0.5 (≈ 0.71 µM)	> 32	> 32	> 32	> 32	> 32			
COc1cccc(/C=C/c2ccc(C(=O)Nc3cc(C(=O)Nc4cc(C(=O)NCCC(=N)N)n(C)c4)n(C)c3)cc2)c1.O=C(O)C(F)(F)F	15.8		8	> 32	> 32	> 32	> 32	> 32	10.1 µg/mL and 10.7 µg/mL	4	16 µg/mL and 32 µg/mL
COc1ccc(/C=C/c2ccc(C(=O)Nc3cc(C(=O)Nc4cc(C(=O)NCCN5CCCCC5)n(CCCc5ccccc5)c4)n(C)c3)cn2)cc1.O=C(O)C(F)(F)F.O=C(O)C(F)(F)F	> 32	16	> 32	> 32	> 32	> 32	> 32	> 32			
Cn1cc(NC(=O)c2cc(NC(=O)c3ccc(/C=C/c4ccc5ccccc5n4)cc3)cn2C)cc1C(=O)NCCN1CCOCC1.O=C(O)C(F)(F)F	1.95	4	4	> 32	> 32	> 32	> 32	4			
COc1cccc(/C=C/c2ccc(C(=O)Nc3cc(C(=O)Nc4cc(C(=O)NCCCN(C)C)n(C)c4)n(C)c3)cc2)c1.O=C(O)C(F)(F)F	11.4	> 32	> 32	> 32	> 32	> 32	> 32	> 32			
CC(C)CCc1sc(NC(=O)c2cc(NC(=O)c3cc4ccccc4cn3)cn2C)nc1C(=O)NCCCN(C)C.O=C(O)C(F)(F)F	2.17	> 32	> 32	> 32	> 32	> 32	> 32	> 32			
CC(C)n1cc(NC(=O)c2cc(NC(=O)c3cc4ccccc4oc3=O)cn2C)cc1C(=O)Nc1cc(C(=O)NCCCN(C)C)n(C)c1.O=C(O)C(F)(F)F	> 32	32	> 32	> 32	> 32	> 32	> 32	> 32			
Cn1cc(NC(=O)c2cc(NC(=O)c3ccc(/C=C/c4cc5ccccc5nc4On4nnc5ccccc54)cc3)cn2C)cc1C(=O)NCCN1CCOCC1.O=C(O)C(F)(F)F	> 32	> 32	> 32	> 32	> 32	> 32	> 32	> 32			
CC(=O)/C=C/c1ccc(C(=O)Nc2cc(C(=O)Nc3cc(C(=O)NCCN4CCOCC4)n(C)c3)n(C)c2)cc1.O=C(O)C(F)(F)F	7.01	> 32	> 32	> 32	> 32	> 32	> 32	> 32			
CN(C)CCNC(=O)c1cc(NC(=O)c2cc(NC(=O)c3ccc(/C=C/c4cnc5ccccc5c4)cc3)cn2C)cn1C.O=C(O)C(F)(F)F.O=C(O)C(F)(F)F		16	0.5	> 32	> 32	> 32	> 32	32	4.83 µg/mL and 2.72 µg/mL and 6.4 µg/mL	1	32 µg/mL and >32 µg/mL
CC(C)CCc1sc(NC(=O)c2cc(NC(=O)c3cc(NC(=N)c4cnc5ccccc5c4)cn3C)cn2C)nc1C(=O)NCCCN(C)C.O=C(O)C(F)(F)F.O=C(O)C(F)(F)F	1.18	≤ 0.25	1	> 32	> 32	> 32	> 32	> 32			
Cn1cc(NC(=O)c2cc(NC(=O)c3cc4ccccc4cn3)cn2C)cc1C(=O)NCCN1CCOCC1.O=C(O)C(F)(F)F	> 32	> 32	> 32	> 32	> 32	> 32	> 32	> 32			
CSc1ccc(/C=C/c2ccc3cc(C(=O)Nc4cc(C(=O)Nc5cc(C(=O)NCCN6CCOCC6)n(C)c5)n(C)c4)ccc3n2)cc1.O=C(O)C(F)(F)F	> 32	8	> 32	> 32	> 32	> 32	> 32	4			
COC(=O)c1ccc(C(=O)Nc2cc(C(=O)Nc3cc(C(=O)Nc4nc(C(=O)NCCCN(C)C)c(CCC(C)C)s4)n(C)c3)n(C)c2)cc1.O=C(O)C(F)(F)F	2.72	> 32	> 32	> 32	> 32	> 32	> 32	> 32			
Cn1cc(NC(=O)c2ccc(/C=C/c3cnc4ccccc4c3)cc2)cc1C(=O)Nc1cc(C(=O)NCCN2CCOCC2)n(CCCc2cn(CCc3ccccc3)nn2)c1.O=C(O)C(F)(F)F	> 32	16	> 32	> 32	> 32	> 32	> 32	> 32			
Cn1cc(NC(=O)c2cc(NC(=O)c3cc(NC(=O)c4ccc(Cl)cc4Cl)cn3C)cn2C)cc1C(=O)NCCCN1CCOCC1.O=C(O)C(F)(F)F	7.32	> 32	> 32	> 32	> 32	> 32	> 32	> 32			
CC(C)c1sc(NC(=O)c2cc(NC(=O)c3cc(NC(=O)c4cc(NC=O)cn4C)cn3C)cn2C)nc1C(=O)NCCCN(C)C.O=C(O)C(F)(F)F	> 32	> 32	16	> 32	> 32	> 32	> 32	> 32			
CN(C)CCCNC(=O)c1cc(NC(=O)c2cc(NC(=O)c3cc(NC(=N)c4cnc5ccccc5c4)cn3C)cn2C)cn1C.O=C(O)C(F)(F)F.O=C(O)C(F)(F)F	> 32	8	> 32	> 32	> 32	> 32	> 32	> 32			
